In US5593964A, “Method of treating septic shock by preventing actin polymerization” (The George Washington University Medical Center, priority 1994, dated 1997):

Assays:
lethal endotoxin shock = assay: Survival of Swiss Webster mice following lethal endotoxin dose and Tβ4; assay type: in vivo
Experimental: Swiss-Webster mice 4-6 weeks of age (20-25g) were housed 6 per cage. The mice were divided into 2 groups: endotoxic mice (endotoxin 60 mg/kg i.p. in acute treatment) and endotoxic mice treated with Tβ4, 5 minutes and 2, 4, 6, 8, 10, 12, 14, 16, 18, 20, 22, 24 hours post administration of the endotoxin. Survival was recorded 2 times a day for 7 days.
Swiss-Webster mice 4-6 weeks of age (20-25g) were divided to the following 4 groups.
1. Mice treated with a lethal dose of endotoxin (60 mg/kg).
2. Mice treated with 60 mg/kg endotoxin followed by an injection of 100 μg Tβ4 (5 minutes post administration of endotoxin).
3. Mice treated with 60 mg/kg endotoxin followed by 2 injections of 100 μg/Tβ4 (immediately following and 2 hours post administration of endotoxin).
4. […]

IL-1α = IL-1α serum levels after lethal endotoxin dose; assay type: in vivo, Swiss-Webster mice
Excerpt: (§1) Using the same methods and materials as in examples 1-3, the effect which Tβ4 has on blood levels of IL-1α, TNF-α, PAG, Txβ2 and 6-keto-PGF1 α, which are pathological mediators of endotoxin induced lethality, was studied.

PAF = PAF blood levels (plasma, serum) after lethal endotoxin dose; assay type: in vivo, Swiss-Webster mice; conditions: after a lethal dose of endotoxin
Excerpt: as §1

Txβ2 = Txβ2 plasma levels after lethal endotoxin dose; assay type: in vivo, Swiss-Webster mice
Excerpt: as §1

6-keto-PGF1α = 6-keto-PGF1α plasma levels after lethal endotoxin dose; assay type: in vivo, Swiss-Webster mice; conditions: after a lethal dose of endotoxin
Excerpt: as §1

TNF-α = TNF-α serum levels after lethal endotoxin dose; assay type: in vivo, Swiss-Webster mice
Excerpt: as §1

[1] = after a lethal dose of endotoxin
[2] = endotoxin 60 mg/kg + Tβ4 100 μg administered simultaneously, 1 hr
[3] = endotoxin 60 mg/kg + Tβ4 100 μg administered simultaneously, 3 hr

Thymosin β4 [Tβ4]
activity on endotoxin lethality (lethal endotoxin shock; 10 μg Tβ4): sometimes shown positive activity
protection against lethal endotoxin shock (lethal endotoxin shock; Example 1, endotoxin 60 mg/kg i.p.): protected against lethal endotoxin shock
survival rate (lethal endotoxin shock; Example 1, endotoxin 60 mg/kg i.p., Tβ4 5 minutes and 2 to 24 hours post endotoxin, survival recorded for 7 days): ≤ 100%
survival rate (lethal endotoxin shock; Example 2, endotoxin 60 mg/kg, Tβ4 administered 3 times post endotoxin): 100%
Survival (No. mice alive) (lethal endotoxin shock; Table I, endotoxin 60 mg/kg + Tβ4 100 μg 1x (5 min post endotoxin), 24 hrs, 7 mice at 0 hrs): 4
Survival (No. mice alive) (lethal endotoxin shock; Table I, endotoxin 60 mg/kg + Tβ4 100 μg 2x (immediately and 2 hours post endotoxin), 24 hrs, 7 mice at 0 hrs): 4
Survival (No. mice alive) (lethal endotoxin shock; Table I, endotoxin 60 mg/kg + Tβ4 100 μg 3x (immediately, 2 and 4 hours post endotoxin), 24 hrs, 7 mice at 0 hrs): 7
Survival (No. mice alive) (lethal endotoxin shock; Table II, Tβ4 10 μg 3x immediately following, 2 and 4 hrs after endotoxin, 48 hrs, 8 mice at 0 hrs): 6
Survival (No. mice alive) (lethal endotoxin shock; Table II, Tβ4 10 μg 3x immediately following, 2 and 4 hrs after endotoxin, 72 hrs, 8 mice at 0 hrs): 6
Survival (No. mice alive) (lethal endotoxin shock; Table II, Tβ4 10 μg 3x immediately following, 2 and 4 hrs after endotoxin, 96 hrs, 8 mice at 0 hrs): 6
Survival (No. mice alive) (lethal endotoxin shock; Table II, Tβ4 10 μg 3x immediately following, 2 and 4 hrs after endotoxin, 120 hrs, 8 mice at 0 hrs): 6
Survival (No. mice alive) (lethal endotoxin shock; Table II, Tβ4 100 μg 3x at 2, 4 and 6 hrs after endotoxin, 48 hrs, 8 mice at 0 hrs): 4
Survival (No. mice alive) (lethal endotoxin shock; Table II, Tβ4 100 μg 3x at 2, 4 and 6 hrs after endotoxin, 72 hrs, 8 mice at 0 hrs): 4
Survival (No. mice alive) (lethal endotoxin shock; Table II, Tβ4 100 μg 3x at 2, 4 and 6 hrs after endotoxin, 96 hrs, 8 mice at 0 hrs): 4
Survival (No. mice alive) (lethal endotoxin shock; Table II, Tβ4 100 μg 3x at 2, 4 and 6 hrs after endotoxin, 120 hrs, 8 mice at 0 hrs): 4
Survival (No. mice alive) (lethal endotoxin shock; Table II, Tβ4 100 μg 3x immediately following, 2 and 4 hrs after endotoxin, 48 hrs, 8 mice at 0 hrs): 8
Survival (No. mice alive) (lethal endotoxin shock; Table II, Tβ4 100 μg 3x immediately following, 2 and 4 hrs after endotoxin, 72 hrs, 8 mice at 0 hrs): 8
Survival (No. mice alive) (lethal endotoxin shock; Table II, Tβ4 100 μg 3x immediately following, 2 and 4 hrs after endotoxin, 96 hrs, 8 mice at 0 hrs): 8
Survival (No. mice alive) (lethal endotoxin shock; Table II, Tβ4 100 μg 3x immediately following, 2 and 4 hrs after endotoxin, 120 hrs, 8 mice at 0 hrs): 8
Survival (No. mice alive) (lethal endotoxin shock; Table II, endotoxin 60 mg/kg + Tβ4 10 μg 3x immediately following, 2 and 4 hrs after endotoxin, 24 hrs, 8 mice at 0 hrs): 8
Survival (No. mice alive) (lethal endotoxin shock; Table II, endotoxin 60 mg/kg + Tβ4 100 μg 3x at 2, 4 and 6 hrs after endotoxin, 24 hrs, 8 mice at 0 hrs): 7
Survival (No. mice alive) (lethal endotoxin shock; Table II, endotoxin 60 mg/kg + Tβ4 100 μg 3x immediately following, 2 and 4 hrs after endotoxin, 24 hrs, 8 mice at 0 hrs): 8
Survival (No. mice alive) (lethal endotoxin shock; Table III, Tβ4 10 μg 3x i.p., 48 hrs, 10 mice at 0 hrs): 3
Survival (No. mice alive) (lethal endotoxin shock; Table III, Tβ4 10 μg 3x i.p., 72 hrs, 10 mice at 0 hrs): 3
Survival (No. mice alive) (lethal endotoxin shock; Table III, Tβ4 10 μg 3x i.p., 96 hrs, 10 mice at 0 hrs): 3
Survival (No. mice alive) (lethal endotoxin shock; Table III, Tβ4 10 μg 3x i.p., 5 days, 10 mice at 0 hrs): 3
Survival (No. mice alive) (lethal endotoxin shock; Table III, Tβ4 10 μg 3x i.p., 6 days, 10 mice at 0 hrs): 3
Survival (No. mice alive) (lethal endotoxin shock; Table III, Tβ4 20 μg 3x i.p., 48 hrs, 10 mice at 0 hrs): 4
Survival (No. mice alive) (lethal endotoxin shock; Table III, Tβ4 20 μg 3x i.p., 72 hrs, 10 mice at 0 hrs): 4
Survival (No. mice alive) (lethal endotoxin shock; Table III, Tβ4 20 μg 3x i.p., 96 hrs, 10 mice at 0 hrs): 3
Survival (No. mice alive) (lethal endotoxin shock; Table III, Tβ4 20 μg 3x i.p., 5 days, 10 mice at 0 hrs): 3
Survival (No. mice alive) (lethal endotoxin shock; Table III, Tβ4 20 μg 3x i.p., 6 days, 10 mice at 0 hrs): 3
Survival (No. mice alive) (lethal endotoxin shock; Table III, Tβ4 50 μg 3x i.p., 48 hrs, 10 mice at 0 hrs): 7
Survival (No. mice alive) (lethal endotoxin shock; Table III, Tβ4 50 μg 3x i.p., 72 hrs, 10 mice at 0 hrs): 7
Survival (No. mice alive) (lethal endotoxin shock; Table III, Tβ4 50 μg 3x i.p., 96 hrs, 10 mice at 0 hrs): 7
Survival (No. mice alive) (lethal endotoxin shock; Table III, Tβ4 50 μg 3x i.p., 5 days, 10 mice at 0 hrs): 7
Survival (No. mice alive) (lethal endotoxin shock; Table III, Tβ4 50 μg 3x i.p., 6 days, 10 mice at 0 hrs): 7
Survival (No. mice alive) (lethal endotoxin shock; Table III, endotoxin 60 mg/kg + Tβ4 10 μg 3x i.p. immediately following, 2 and 4 hrs after endotoxin, 24 hrs, 10 mice at 0 hrs): 3
Survival (No. mice alive) (lethal endotoxin shock; Table III, endotoxin 60 mg/kg + Tβ4 20 μg 3x i.p. immediately following, 2 and 4 hrs after endotoxin, 24 hrs, 10 mice at 0 hrs): 5
Survival (No. mice alive) (lethal endotoxin shock; Table III, endotoxin 60 mg/kg + Tβ4 50 μg 3x i.p. immediately following, 2 and 4 hrs after endotoxin, 24 hrs, 10 mice at 0 hrs): 9
survival of mice treated with endotoxin (lethal endotoxin shock; Tβ4 20 μg administered three times): partially increased the survival
survival of mice treated with endotoxin (lethal endotoxin shock; Tβ4 50 μg administered three times): partially increased the survival
effect on endotoxin toxicity (lethal endotoxin shock; Tβ4 given immediately following, 2 and 4 hours after endotoxin treatment): protective effect
IL-1α (serum levels) (IL-1α; [1]): decreased
IL-1α (serum levels) (IL-1α; [2]): 147,5 ± 15,1 pg/ml
IL-1α (serum levels) (IL-1α; [3]): 207,5 ± 19,3 pg/ml
PAF plasma levels (PAF): decreased
Txβ2 (plasma levels) (Txβ2; [1]): decreased
Txβ2 (plasma levels) (Txβ2; endotoxin 60 mg/kg + Tβ4 100 μg administered simultaneously, 0.5 hr): 209 ± 9,5 pg/ml
Txβ2 (plasma levels) (Txβ2; [2]): 607 ± 53 pg/mL
Txβ2 (plasma levels) (Txβ2; endotoxin 60 mg/kg + Tβ4 100 μg administered simultaneously, 2 hr): 196 ± 18 pg/mL
Txβ2 (plasma levels) (Txβ2; [3]): 112 ± 9 pg/mL
6-keto-PGF1 α plasma levels (6-keto-PGF1α): decreased
TNF-α (serum levels) (TNF-α; [1]): decreased
TNF-α (serum levels) (TNF-α; endotoxin 60 mg/kg + Tβ4 100 μg administered immediately after endotoxin, 1 hr): 807 pg/mL
TNF-α (serum levels) (TNF-α; endotoxin 60 mg/kg + Tβ4 100 μg administered immediately after endotoxin, 3 hr): 591 pg/mL
TNF-α (serum levels) (TNF-α; endotoxin 60 mg/kg + Tβ4 100 μg administered immediately after endotoxin, 5 hr): 496 pg/mL
